In ChEMBL document CHEMBL4321825, “Discovery of a Series of 5-Azaquinazolines as Orally Efficacious IRAK4 Inhibitors Targeting MyD88L265P Mutant Diffuse Large B Cell Lymphoma” (J Med Chem, 2019):
Values after ≈ are worked out from the molar mass of the structure shown. Active and inactive are the calls of the source. No cut-off for these calls is given here.

Key:
[1] = molecular target: T1, Interleukin-1 receptor-associated kinase 4 (Homo sapiens, UniProt Q9NWZ3); experiment: Inhibition of IRAK4 (unknown origin) by cell based assay
T1 sequence (Q9NWZ3 whole entry): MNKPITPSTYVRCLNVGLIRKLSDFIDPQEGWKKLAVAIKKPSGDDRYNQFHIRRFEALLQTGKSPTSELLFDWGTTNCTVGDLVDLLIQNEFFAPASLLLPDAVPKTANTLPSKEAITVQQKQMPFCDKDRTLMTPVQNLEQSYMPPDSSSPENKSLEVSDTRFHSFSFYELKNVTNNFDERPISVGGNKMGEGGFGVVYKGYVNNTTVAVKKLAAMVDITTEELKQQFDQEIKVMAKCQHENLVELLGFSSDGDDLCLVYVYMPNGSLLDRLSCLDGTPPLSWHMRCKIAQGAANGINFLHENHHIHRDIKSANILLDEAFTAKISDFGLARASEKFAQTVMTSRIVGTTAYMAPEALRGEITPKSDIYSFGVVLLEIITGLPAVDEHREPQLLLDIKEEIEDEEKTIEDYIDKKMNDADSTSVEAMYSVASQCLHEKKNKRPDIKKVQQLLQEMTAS

[2] = molecular target: T1, Interleukin-1 receptor-associated kinase 4; experiment: Inhibition of IRAK4 (unknown origin) in presence of 5 mM ATP by enzymatic assay
[3] = Intrinsic permeability in human Caco2 cells; type: ADME, cell-based; details: Caco-2
[4] = Efflux ratio in human Caco2 cells; type: ADME, cell-based; details: Caco-2
[5] = Lipophilicity, logD of the compound at pH 7.4 by shake-flask assay; type: physicochemical; details: buffer
[6] = Intrinsic clearance in rat hepatocytes assessed per million cells; type: ADME, cell-based, Hepatocyte; details: read-out: CLH
[7] = Intrinsic clearance in human hepatocytes assessed per million cells; type: ADME, cell-based, Hepatocyte; details: read-out: CLH
[8] = Clearance in rat at 0.5 mg/kg, iv; type: ADME, organism-based; details: in vivo
[9] = Oral bioavailability in rat at 1 mg/kg; type: ADME, organism-based; details: in vivo
[10] = AUC in SCID mouse at 50 mg/kg, po; type: ADME, organism-based; details: in vivo
[11] = Unbound fraction in rat plasma at 37 degC by equilibrium dialysis; type: ADME, cell-free
[12] = molecular target: Cyclin-dependent kinase 7 (Homo sapiens, UniProt P50613); experiment: Inhibition of CDK7 (unknown origin)
[13] = Plasma clearance in Han Wistar rat at 1 mg/kg, iv; type: ADME, organism-based
[14] = molecular target: Interleukin-1 receptor-associated kinase 1 (Homo sapiens, UniProt P51617); experiment: Inhibition of IRAK1 (unknown origin)
[15] = molecular target: Casein kinase I isoform gamma-1 (Homo sapiens) (UniProt Q9HCP0); experiment: Inhibition of CK1g1 (unknown origin) at 1 uM relative to control
[16] = molecular target: Dual specificity protein kinase CLK3 (Homo sapiens, UniProt P49761); experiment: Inhibition of human recombinant CLK3 expressed in Baculovirus system
[17] = molecular target: Dual specificity protein kinase CLK1 (Homo sapiens, UniProt P49759); experiment: Inhibition of human recombinant CLK1 expressed in Escherichia coli
[18] = molecular target: T2, Cyclin-dependent kinase 9 (Homo sapiens, UniProt P50750); experiment: Inhibition of CDK9 (unknown origin) at 1 uM relative to control
[19] = Unbound fraction in human plasma at 37 degC by equilibrium dialysis; type: ADME, cell-free
[20] = Unbound fraction in mouse plasma at 37 degC by equilibrium dialysis; type: ADME, cell-free
[21] = Aqueous solubility in pH 7.4 phosphate buffer; type: physicochemical
[22] = molecular target: Dual specificity protein kinase CLK2 (Homo sapiens, UniProt P49760); experiment: Inhibition of human recombinant CLK2 expressed in Baculovirus system
OCI-Ly10 [23] = experiment: Antitumor activity against human OCI-LY10 cells xenografted in CB.17 SCID mouse assessed as induction of tumor regression at 50 mg/kg, po QD dosed 34 days after tumor cell inoculation and co-treated with 12 mg/kg, po QD ibrutinib; type: functional, organism-based
[24] = molecular target: Mitogen-activated protein kinase kinase kinase 9 (Homo sapiens) (UniProt P80192); experiment: Inhibition of MLK1 (unknown origin) at 1 uM relative to control
[25] = Oral bioavailability in Han Wistar rat at 2 mg/kg; type: ADME, organism-based; details: in vivo
[26] = molecular target: Dual specificity protein kinase CLK4 (Homo sapiens, UniProt Q9HAZ1); experiment: Inhibition of human recombinant CLK4 expressed in Baculovirus system
[27] = Volume of distribution at steady state in Han Wistar rat at 1 mg/kg, iv; type: ADME, organism-based; details: in vivo, read-out: Vdss
CDK8/Cyclin C = CDK8/Cyclin C (Homo sapiens, UniProt P49336); experiment: Inhibition of human recombinant CDK8/cyclinC expressed in Baculovirus system
[28] = molecular target: T3, Serine/threonine-protein kinase ULK2 (Homo sapiens) (UniProt Q8IYT8); experiment: Inhibition of ULK2 (unknown origin) at 1 uM relative to control
T3 sequence (whole entry): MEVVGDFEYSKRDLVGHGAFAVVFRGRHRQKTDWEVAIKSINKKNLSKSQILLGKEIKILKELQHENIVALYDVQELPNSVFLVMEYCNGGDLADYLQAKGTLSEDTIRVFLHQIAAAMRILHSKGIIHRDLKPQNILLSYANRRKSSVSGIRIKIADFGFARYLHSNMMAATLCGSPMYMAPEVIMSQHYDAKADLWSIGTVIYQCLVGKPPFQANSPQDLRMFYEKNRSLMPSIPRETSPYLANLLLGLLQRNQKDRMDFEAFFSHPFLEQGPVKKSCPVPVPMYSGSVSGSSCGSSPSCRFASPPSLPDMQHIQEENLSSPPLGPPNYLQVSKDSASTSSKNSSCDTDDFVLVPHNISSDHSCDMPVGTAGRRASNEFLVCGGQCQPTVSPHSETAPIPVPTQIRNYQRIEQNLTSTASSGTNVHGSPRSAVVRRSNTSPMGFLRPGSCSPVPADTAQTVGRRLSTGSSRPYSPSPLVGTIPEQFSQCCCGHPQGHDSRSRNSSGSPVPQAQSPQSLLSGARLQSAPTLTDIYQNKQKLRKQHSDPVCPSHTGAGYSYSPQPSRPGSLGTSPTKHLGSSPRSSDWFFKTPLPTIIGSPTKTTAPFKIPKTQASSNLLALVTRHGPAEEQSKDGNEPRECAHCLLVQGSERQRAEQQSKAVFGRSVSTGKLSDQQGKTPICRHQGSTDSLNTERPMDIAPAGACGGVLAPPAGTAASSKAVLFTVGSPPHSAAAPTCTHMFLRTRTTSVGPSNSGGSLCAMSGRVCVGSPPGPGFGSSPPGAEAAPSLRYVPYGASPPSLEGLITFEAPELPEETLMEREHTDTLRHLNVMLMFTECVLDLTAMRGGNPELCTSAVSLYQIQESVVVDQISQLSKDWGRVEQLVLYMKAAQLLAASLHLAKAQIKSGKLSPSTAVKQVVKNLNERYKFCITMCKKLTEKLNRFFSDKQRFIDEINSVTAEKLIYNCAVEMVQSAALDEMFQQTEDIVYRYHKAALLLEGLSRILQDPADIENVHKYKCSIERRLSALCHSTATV

[29] = molecular target: T2, Cyclin-dependent kinase 9; experiment: Inhibition of CDK9 (unknown origin)
OCI-Ly10 [30] = experiment: Antitumor activity against human OCI-LY10 cells xenografted in CB.17 SCID mouse assessed as inhibition of tumor growth at 50 mg/kg, po QD dosed 34 days after tumor cell inoculation; type: functional, organism-based

T2 sequence (P50750 whole entry): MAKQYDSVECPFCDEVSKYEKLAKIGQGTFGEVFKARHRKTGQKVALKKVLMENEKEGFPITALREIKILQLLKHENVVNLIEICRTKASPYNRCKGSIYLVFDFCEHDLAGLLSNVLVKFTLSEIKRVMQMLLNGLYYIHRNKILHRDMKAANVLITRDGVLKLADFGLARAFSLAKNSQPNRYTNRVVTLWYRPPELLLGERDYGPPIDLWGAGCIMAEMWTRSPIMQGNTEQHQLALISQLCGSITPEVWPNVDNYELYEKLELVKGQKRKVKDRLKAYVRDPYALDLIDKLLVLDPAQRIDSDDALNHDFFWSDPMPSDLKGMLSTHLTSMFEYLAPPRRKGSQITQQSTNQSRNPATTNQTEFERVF
Sequence of CDK8/Cyclin C (P49336 whole entry): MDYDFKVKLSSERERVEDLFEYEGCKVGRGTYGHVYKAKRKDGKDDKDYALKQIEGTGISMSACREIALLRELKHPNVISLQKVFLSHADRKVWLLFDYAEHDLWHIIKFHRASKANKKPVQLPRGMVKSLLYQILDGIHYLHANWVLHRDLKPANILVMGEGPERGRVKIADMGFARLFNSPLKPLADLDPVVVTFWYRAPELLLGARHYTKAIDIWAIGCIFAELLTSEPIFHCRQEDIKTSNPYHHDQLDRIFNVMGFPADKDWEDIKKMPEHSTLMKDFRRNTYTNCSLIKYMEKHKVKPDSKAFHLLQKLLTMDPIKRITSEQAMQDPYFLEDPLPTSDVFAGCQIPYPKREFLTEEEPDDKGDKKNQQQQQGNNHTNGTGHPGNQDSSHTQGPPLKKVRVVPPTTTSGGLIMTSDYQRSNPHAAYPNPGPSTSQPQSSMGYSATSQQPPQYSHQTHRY
Sequence of CDK8/Cyclin C (P24863 whole entry, further chain): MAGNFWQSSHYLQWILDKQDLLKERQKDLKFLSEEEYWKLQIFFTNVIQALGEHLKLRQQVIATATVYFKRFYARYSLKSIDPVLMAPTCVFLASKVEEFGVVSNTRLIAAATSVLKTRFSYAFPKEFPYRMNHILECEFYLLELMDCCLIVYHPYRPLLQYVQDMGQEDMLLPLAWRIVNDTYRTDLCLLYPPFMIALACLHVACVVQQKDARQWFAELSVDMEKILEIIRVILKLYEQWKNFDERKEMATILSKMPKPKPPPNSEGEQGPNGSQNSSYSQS
Sequence of Casein kinase I isoform gamma-1 (Homo sapiens) (Q9HCP0 whole entry, looked up, canonical isoform): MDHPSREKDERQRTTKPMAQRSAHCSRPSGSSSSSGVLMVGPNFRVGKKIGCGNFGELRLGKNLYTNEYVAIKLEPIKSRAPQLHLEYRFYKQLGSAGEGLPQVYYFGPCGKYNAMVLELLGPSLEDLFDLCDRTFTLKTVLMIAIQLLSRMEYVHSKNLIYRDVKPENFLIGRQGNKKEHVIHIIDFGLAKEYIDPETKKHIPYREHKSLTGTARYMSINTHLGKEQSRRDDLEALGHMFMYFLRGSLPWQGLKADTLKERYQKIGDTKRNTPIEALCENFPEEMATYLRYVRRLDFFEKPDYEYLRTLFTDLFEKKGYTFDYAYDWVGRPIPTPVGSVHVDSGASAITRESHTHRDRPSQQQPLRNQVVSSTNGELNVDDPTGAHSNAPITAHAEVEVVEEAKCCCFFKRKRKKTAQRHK
Sequence of Dual specificity protein kinase CLK2 (P49760 whole entry): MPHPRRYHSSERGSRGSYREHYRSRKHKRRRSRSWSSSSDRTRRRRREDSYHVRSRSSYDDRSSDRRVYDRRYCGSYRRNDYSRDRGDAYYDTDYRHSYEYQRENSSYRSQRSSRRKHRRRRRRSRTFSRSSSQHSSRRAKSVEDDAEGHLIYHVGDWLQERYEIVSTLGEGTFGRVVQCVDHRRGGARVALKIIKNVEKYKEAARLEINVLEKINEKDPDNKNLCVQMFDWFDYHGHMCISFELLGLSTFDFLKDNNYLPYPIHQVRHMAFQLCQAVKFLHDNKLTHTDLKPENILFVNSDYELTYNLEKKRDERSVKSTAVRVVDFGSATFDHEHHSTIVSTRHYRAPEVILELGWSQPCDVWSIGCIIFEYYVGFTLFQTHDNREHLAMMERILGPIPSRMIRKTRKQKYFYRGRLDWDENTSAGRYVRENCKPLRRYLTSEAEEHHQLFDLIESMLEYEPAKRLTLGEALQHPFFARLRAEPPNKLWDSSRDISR
Sequence of Dual specificity protein kinase CLK4 (Q9HAZ1 whole entry): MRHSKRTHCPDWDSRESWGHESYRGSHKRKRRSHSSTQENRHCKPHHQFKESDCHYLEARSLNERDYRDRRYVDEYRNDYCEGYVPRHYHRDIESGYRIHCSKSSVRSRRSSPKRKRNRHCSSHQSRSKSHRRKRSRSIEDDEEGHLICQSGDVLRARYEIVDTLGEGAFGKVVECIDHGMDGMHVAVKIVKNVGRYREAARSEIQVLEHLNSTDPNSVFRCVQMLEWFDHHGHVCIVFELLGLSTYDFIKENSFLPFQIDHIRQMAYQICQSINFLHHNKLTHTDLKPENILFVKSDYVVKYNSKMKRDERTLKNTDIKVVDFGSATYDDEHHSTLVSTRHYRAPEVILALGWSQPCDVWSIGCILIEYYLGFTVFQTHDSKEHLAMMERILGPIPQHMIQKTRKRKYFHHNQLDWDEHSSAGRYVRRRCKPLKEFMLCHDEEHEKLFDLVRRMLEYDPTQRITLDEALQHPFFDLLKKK
Sequence of Mitogen-activated protein kinase kinase kinase 9 (Homo sapiens) (P80192 whole entry, looked up): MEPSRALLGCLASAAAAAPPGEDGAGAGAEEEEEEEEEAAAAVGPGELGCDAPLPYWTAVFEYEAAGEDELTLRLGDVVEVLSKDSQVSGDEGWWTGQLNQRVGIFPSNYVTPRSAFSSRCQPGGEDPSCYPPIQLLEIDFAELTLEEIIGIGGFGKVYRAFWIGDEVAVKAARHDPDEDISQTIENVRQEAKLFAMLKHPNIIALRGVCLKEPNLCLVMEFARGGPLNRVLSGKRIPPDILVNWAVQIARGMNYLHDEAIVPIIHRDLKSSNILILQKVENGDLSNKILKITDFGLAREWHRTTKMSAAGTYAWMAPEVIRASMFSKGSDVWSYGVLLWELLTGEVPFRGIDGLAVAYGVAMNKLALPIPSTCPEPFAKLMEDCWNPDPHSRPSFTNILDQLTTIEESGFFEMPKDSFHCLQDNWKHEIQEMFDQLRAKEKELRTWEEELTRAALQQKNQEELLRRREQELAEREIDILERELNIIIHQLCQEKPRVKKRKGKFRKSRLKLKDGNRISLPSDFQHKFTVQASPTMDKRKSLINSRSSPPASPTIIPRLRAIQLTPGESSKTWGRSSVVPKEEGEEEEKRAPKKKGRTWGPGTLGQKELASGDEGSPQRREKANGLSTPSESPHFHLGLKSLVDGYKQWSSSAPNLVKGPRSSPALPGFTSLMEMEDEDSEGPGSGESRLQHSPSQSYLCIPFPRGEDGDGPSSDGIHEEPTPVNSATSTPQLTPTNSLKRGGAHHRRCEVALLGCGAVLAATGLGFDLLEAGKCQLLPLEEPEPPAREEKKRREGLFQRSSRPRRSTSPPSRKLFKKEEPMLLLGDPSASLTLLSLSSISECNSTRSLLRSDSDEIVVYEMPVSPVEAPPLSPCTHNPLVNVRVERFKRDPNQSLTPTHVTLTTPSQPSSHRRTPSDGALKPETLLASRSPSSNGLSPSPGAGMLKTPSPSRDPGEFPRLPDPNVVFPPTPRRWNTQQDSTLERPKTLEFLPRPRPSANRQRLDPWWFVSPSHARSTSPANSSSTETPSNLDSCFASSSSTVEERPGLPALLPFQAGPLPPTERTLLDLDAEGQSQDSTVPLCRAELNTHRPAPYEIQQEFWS
Sequence of Cyclin-dependent kinase 7 (P50613 whole entry): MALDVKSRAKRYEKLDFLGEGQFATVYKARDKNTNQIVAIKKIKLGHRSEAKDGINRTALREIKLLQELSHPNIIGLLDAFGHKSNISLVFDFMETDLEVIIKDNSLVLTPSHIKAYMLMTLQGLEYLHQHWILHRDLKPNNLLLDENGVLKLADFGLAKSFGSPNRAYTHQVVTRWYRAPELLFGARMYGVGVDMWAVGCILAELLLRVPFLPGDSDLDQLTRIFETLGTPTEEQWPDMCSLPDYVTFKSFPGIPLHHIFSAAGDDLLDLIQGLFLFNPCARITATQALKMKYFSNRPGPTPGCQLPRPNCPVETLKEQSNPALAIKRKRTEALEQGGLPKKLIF
Sequence of Dual specificity protein kinase CLK3 (P49761 whole entry): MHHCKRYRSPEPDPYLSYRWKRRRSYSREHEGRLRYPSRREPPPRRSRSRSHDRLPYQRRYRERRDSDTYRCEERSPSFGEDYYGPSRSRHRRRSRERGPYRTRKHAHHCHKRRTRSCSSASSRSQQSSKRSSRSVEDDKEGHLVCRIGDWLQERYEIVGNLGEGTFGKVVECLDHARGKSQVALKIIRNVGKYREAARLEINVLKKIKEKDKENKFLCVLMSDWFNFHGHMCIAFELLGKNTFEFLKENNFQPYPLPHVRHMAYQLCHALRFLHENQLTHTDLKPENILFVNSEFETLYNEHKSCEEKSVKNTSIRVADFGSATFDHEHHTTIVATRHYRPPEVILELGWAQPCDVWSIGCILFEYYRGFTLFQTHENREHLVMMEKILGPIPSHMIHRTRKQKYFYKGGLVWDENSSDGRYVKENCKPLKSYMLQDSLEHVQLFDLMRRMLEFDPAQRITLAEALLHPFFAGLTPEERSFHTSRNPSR
Sequence of Dual specificity protein kinase CLK1 (P49759 whole entry): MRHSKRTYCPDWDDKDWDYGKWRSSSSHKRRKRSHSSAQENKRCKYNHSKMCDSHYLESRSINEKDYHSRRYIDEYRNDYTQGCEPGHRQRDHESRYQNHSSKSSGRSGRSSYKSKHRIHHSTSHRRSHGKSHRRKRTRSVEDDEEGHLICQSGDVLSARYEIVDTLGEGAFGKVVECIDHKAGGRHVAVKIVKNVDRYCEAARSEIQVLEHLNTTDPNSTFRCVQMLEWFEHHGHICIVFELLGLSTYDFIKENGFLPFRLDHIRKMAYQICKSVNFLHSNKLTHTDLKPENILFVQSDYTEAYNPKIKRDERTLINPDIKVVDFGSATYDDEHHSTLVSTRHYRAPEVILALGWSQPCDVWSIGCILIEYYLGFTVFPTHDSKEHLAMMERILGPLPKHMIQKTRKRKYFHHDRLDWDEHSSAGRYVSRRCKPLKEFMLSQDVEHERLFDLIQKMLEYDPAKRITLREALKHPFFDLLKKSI

## COC(=O)N1CCN([C@H]2CC[C@H](Nc3ncnc4ccc(C)nc34)CC2)CC1
[1]
  IC50: 840 nM
[2]
  IC50: 279 nM
[3]
  Papp: 35 ×10⁻⁶ cm/s
[4]
  efflux ratio: 0.8
[5]
  logD: 2
[6]
  hepatocyte CLint: 5.2 µL/min/1e6 cells
[7]
  hepatocyte CLint: < 1 µL/min/1e6 cells

## N#Cc1ccc2ncnc(N[C@H]3CC[C@H](N4CCOCC4)CC3)c2c1
[8]
  clearance: 20 mL/min/kg
[1]
  IC50: 250 nM
[2]
  IC50: 46 nM
[3]
  Papp: 18 ×10⁻⁶ cm/s
[4]
  efflux ratio: 1.6
[5]
  logD: 1.6
[6]
  hepatocyte CLint: 3.4 µL/min/1e6 cells
[9]
  bioavailability: 29%
[7]
  hepatocyte CLint: < 1.2 µL/min/1e6 cells

## Cn1cc(Nc2nc(N[C@H]3CC[C@H](N4CCOCC4)CC3)c3cc(C#N)ccc3n2)cn1
[8]
  clearance: 31 mL/min/kg
[1]
  IC50: 59 nM
[2]
  IC50: 2 nM
[4]
  efflux ratio: 94
[5]
  logD: 2.6
[6]
  hepatocyte CLint: 18 µL/min/1e6 cells
[9]
  bioavailability: 5%
[7]
  hepatocyte CLint: < 1 µL/min/1e6 cells

## COC(=O)N1CCN([C@H]2CC[C@H](Nc3nc(Nc4cnn(C)c4)nc4ccc(C)nc34)CC2)CC1
[1]
  IC50: 140 nM
[2]
  IC50: 9 nM
[3]
  Papp: 7.9 ×10⁻⁶ cm/s
[4]
  efflux ratio: 0.9
[5]
  logD: 2.6
[6]
  hepatocyte CLint: 10 µL/min/1e6 cells
[7]
  hepatocyte CLint: 13 µL/min/1e6 cells

## CC(=O)N1CCN([C@H]2CC[C@H](Nc3ncnc4ccc(C#N)cc34)CC2)CC1
[8]
  clearance: 19 mL/min/kg
[1]
  IC50: 420 nM
[2]
  IC50: 122 nM
[3]
  Papp: 4.2 ×10⁻⁶ cm/s
[4]
  efflux ratio: 19
[5]
  logD: 1.4
[6]
  hepatocyte CLint: < 1 µL/min/1e6 cells
[7]
  hepatocyte CLint: < 1 µL/min/1e6 cells

## CC(=O)N1CCN([C@H]2CC[C@H](Nc3nc(Nc4cnn(C)c4)nc4ccc(C#N)cc34)CC2)CC1
[8]
  clearance: 17 mL/min/kg
[1]
  IC50: 400 nM
[2]
  IC50: 1 nM
[3]
  Papp: < 0.2 ×10⁻⁶ cm/s
[4]
  efflux ratio: 323
[5]
  logD: 2.3
[6]
  hepatocyte CLint: 3.2 µL/min/1e6 cells
[7]
  hepatocyte CLint: < 1 µL/min/1e6 cells

## COC(=O)N1CCN([C@H]2CC[C@H](Nc3ncnc4ccc(C#N)cc34)CC2)CC1
[10]
  AUC: 390 µM·h
[11]
  fraction unbound: 0.05
[12]
  IC50: 3100 nM
[13]
  clearance: 7.4 mL/min/kg
[8]
  clearance: 7.4 mL/min/kg
[14]
  IC50: 44 nM
[15]
  inhibition: 53%
[16]
  IC50: > 10000 nM
[17]
  IC50: 1700 nM
[18]
  inhibition: 84%
[3]
  Papp: 20 ×10⁻⁶ cm/s
[19]
  fraction unbound: 0.23
[5]
  logD: 2.2
[20]
  fraction unbound: 0.28
[21]
  solubility: 130 µM (≈ 51.3 µg/mL)
[6]
  hepatocyte CLint: < 1.6 µL/min/1e6 cells
[22]
  IC50: 360 nM
OCI-Ly10 [23]
  Activity: Active
[9]
  bioavailability: > 100%
[24]
  inhibition: 51%
[25]
  bioavailability: > 100%
[26]
  IC50: 610 nM
[27]
  Vd: 1.3 L/kg
CDK8/Cyclin C
  IC50: 68 nM
[28]
  inhibition: 58%
[29]
  IC50: 370 nM
OCI-Ly10 [30]
  TGI: Active
[7]
  hepatocyte CLint: < 1 µL/min/1e6 cells

## COC(=O)N1CCN([C@H]2CC[C@H](Nc3nc(Nc4cnn(C)c4)nc4ccc(C(C)C#N)nc34)CC2)CC1 (stereo partly drawn)
[1]
  IC50: 130 nM
[2]
  IC50: 6 nM
[5]
  logD: 2.8
[6]
  hepatocyte CLint: 26 µL/min/1e6 cells

## COC(=O)N1CCN([C@H]2CC[C@H](Nc3nc(Nc4cnn(C)c4)nc4ccc(C(C)(C)C#N)nc34)CC2)CC1
[1]
  IC50: 1600 nM
[2]
  IC50: 69 nM
[5]
  logD: 3
[6]
  hepatocyte CLint: 18 µL/min/1e6 cells

## COC(=O)N1CCN([C@H]2CC[C@H](Nc3nc(Nc4cnn(C)c4)nc4ccc(C#N)cc34)CC2)CC1
[8]
  clearance: 11 mL/min/kg
[1]
  IC50: 34 nM
[2]
  IC50: 1 nM
[3]
  Papp: 3 ×10⁻⁶ cm/s
[4]
  efflux ratio: 46
[5]
  logD: 3.2
[6]
  hepatocyte CLint: 5.4 µL/min/1e6 cells
[9]
  bioavailability: 10%
[7]
  hepatocyte CLint: < 1 µL/min/1e6 cells

## COC(=O)N1CCN([C@H]2CC[C@H](Nc3nc(Nc4cnn(C)c4)nc4ccc(C#N)nc34)CC2)CC1
[1]
  IC50: 48 nM
[2]
  IC50: 5 nM
[5]
  logD: 2.7
[6]
  hepatocyte CLint: 2.6 µL/min/1e6 cells

## COC(=O)N1CCN([C@H]2CC[C@H](Nc3nc(Nc4cnn(C)c4)nc4ccc(C5(C#N)CC5)nc34)CC2)CC1
[1]
  IC50: 61 nM
[2]
  IC50: 17 nM
[5]
  logD: 3.2
[6]
  hepatocyte CLint: 7.3 µL/min/1e6 cells
[7]
  hepatocyte CLint: 4 µL/min/1e6 cells

## COC(=O)N1CCN([C@H]2CC[C@H](Nc3ncnc4ccc(C)cc34)CC2)CC1
[1]
  IC50: 200 nM
[2]
  IC50: 38 nM
[3]
  Papp: 28 ×10⁻⁶ cm/s
[4]
  efflux ratio: 0.7
[5]
  logD: 2.5
[6]
  hepatocyte CLint: 10 µL/min/1e6 cells
[7]
  hepatocyte CLint: < 1 µL/min/1e6 cells
